Experimental data from PubChem BioAssay AID330 (DTP/NCI, 2004).
Values joined by “and” are separate entries in the source; they are usually repeats but may differ in a detail not shown here. Identical values can stand only once. Toxic doses and inconclusive results are not listed.

System: P388 leukemia ip, CD2F1 mice, survival T/C
Assay: NCI In Vivo Anticancer Drug Screen. Data for tumor model P388 Leukemia (intraperitoneal) in CD2F1 (CDF1) mice
Conditions: endpoint: median survival time, higher = longer survival
How it was run: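 Mice carrying the transplanted tumor received test compound or vehicle. Survival was recorded in each group, and the value is the treated-group measurement divided by that of the vehicle-treated control group.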

[1] = dose: 50.0 mg/kg/injection, schedule: Q01DX001 (ip), vehicle: Klucel (hydroxypropylcellulose) (HPC)
[2] = dose: 50.0 mg/kg/injection, schedule: Q01DX005 (ip), vehicle: Klucel (hydroxypropylcellulose) (HPC)
[3] = dose: 100.0 mg/kg/injection, schedule: Q01DX005 (ip), vehicle: Klucel (hydroxypropylcellulose) (HPC)
[4] = dose: 200.0 mg/kg/injection, schedule: Q01DX005 (ip), vehicle: Klucel (hydroxypropylcellulose) (HPC)
[5] = dose: 60.0 mg/kg/injection, schedule: Q01DX005 (ip), vehicle: saline with Tween-80
[6] = dose: 50.0 mg/kg/injection, schedule: Q01DX005 (ip), vehicle: saline with Tween-80
[7] = dose: 100.0 mg/kg/injection, schedule: Q01DX005 (ip), vehicle: saline with Tween-80
[8] = dose: 200.0 mg/kg/injection, schedule: Q01DX005 (ip), vehicle: saline with Tween-80

COC1C(OC2CCC3(C=O)C4CCC5(C)C(C6=CC(=O)OC6)CCC5(O)C4CCC3(O)C2)OC(C)C(O)C1OC (stereo unspecified)
T/C (dose: 0.35 mg/kg/injection, schedule: Q01DX009 (ip), vehicle: saline): 99 % of control
T/C (dose: 0.7 mg/kg/injection, schedule: Q01DX009 (ip), vehicle: saline): 100 % of control
T/C (dose: 1.4 mg/kg/injection, schedule: Q01DX009 (ip), vehicle: saline): 100 % of control
T/C (dose: 2.8 mg/kg/injection, schedule: Q01DX009 (ip), vehicle: saline): 100 % of control

CCOC(=O)c1ccc(NC(=O)c2ccccc2)cc1
T/C [1]: 96 % of control
T/C (dose: 100.0 mg/kg/injection, schedule: Q01DX001 (ip), vehicle: Klucel (hydroxypropylcellulose) (HPC)): 90 % of control
T/C (dose: 200.0 mg/kg/injection, schedule: Q01DX001 (ip), vehicle: Klucel (hydroxypropylcellulose) (HPC)): 92 % of control
T/C (dose: 400.0 mg/kg/injection, schedule: Q01DX001 (ip), vehicle: Klucel (hydroxypropylcellulose) (HPC)): 95 % of control

CC(=O)C(/C=N/C(N)=O)=C(/C)O
T/C (dose: 50.0 mg/kg/injection, schedule: Q04DX003 (ip), vehicle: saline): 100 % of control
T/C (dose: 100.0 mg/kg/injection, schedule: Q04DX003 (ip), vehicle: saline): 100 % of control
T/C (dose: 200.0 mg/kg/injection, schedule: Q04DX003 (ip), vehicle: saline): 110 % of control

CS(=O)(=O)OCCN(CCOS(C)(=O)=O)c1cccc(Cl)c1
T/C (dose: 1.25 mg/kg/injection, schedule: Q01DX009 (ip), vehicle: other): 95 % of control
T/C (dose: 2.5 mg/kg/injection, schedule: Q01DX009 (ip), vehicle: other): 122 % of control
T/C (dose: 10.0 mg/kg/injection, schedule: Q01DX009 (ip), vehicle: other): 186 % of control

O=C(CC(=O)Nc1ccccc1)Cc1ccccc1
T/C (dose: 50.0 mg/kg/injection, schedule: Q01DX009 (ip), vehicle: Klucel (hydroxypropylcellulose) (HPC)): 102 % of control
T/C (dose: 100.0 mg/kg/injection, schedule: Q01DX009 (ip), vehicle: Klucel (hydroxypropylcellulose) (HPC)): 97 % of control
T/C (dose: 200.0 mg/kg/injection, schedule: Q01DX009 (ip), vehicle: Klucel (hydroxypropylcellulose) (HPC)): 99 % of control

CSCCC(NC(=O)C(C)NC(=O)OCc1ccccc1)C(=O)O (stereo unspecified)
T/C [2]: 99 % of control
T/C [3]: 101 % of control
T/C [4]: 95 % of control

CC(Cl)C(Cl)(Cl)/C=C\[N+](=O)[O-] (stereo unspecified)
T/C (dose: 50.0 mg/kg/injection, schedule: Q01DX009 (ip), vehicle: saline): 103 % of control
T/C (dose: 100.0 mg/kg/injection, schedule: Q01DX009 (ip), vehicle: saline): 102 % of control
T/C (dose: 200.0 mg/kg/injection, schedule: Q01DX009 (ip), vehicle: saline): 98 % of control

CCOC(=O)N1C=CC(C(=O)OC)=CC=C1C(=O)OC
T/C [2]: 98 % of control
T/C [3]: 95 % of control
T/C [4]: 94 % of control

CN(C)c1ccc(/C=N/NC(=O)COc2ccccc2)cc1
T/C (dose: 15.0 mg/kg/injection, schedule: Q01DX005 (ip), vehicle: saline with Tween-80): 98 % of control
T/C (dose: 30.0 mg/kg/injection, schedule: Q01DX005 (ip), vehicle: saline with Tween-80): 88 % of control
T/C [5]: 88 % of control

CCCc1cc(=O)[nH]c(Sc2ccc([N+](=O)[O-])cn2)n1
T/C (dose: 3.12 mg/kg/injection, schedule: Q01DX005 (ip), vehicle: Klucel (hydroxypropylcellulose) (HPC)): 101 % of control
T/C (dose: 6.25 mg/kg/injection, schedule: Q01DX005 (ip), vehicle: Klucel (hydroxypropylcellulose) (HPC)): 101 % of control
T/C (dose: 12.5 mg/kg/injection, schedule: Q01DX005 (ip), vehicle: Klucel (hydroxypropylcellulose) (HPC)): 106 % of control

CCOC(=O)N1CCc2cc3c(cc2C1Cc1ccc(OC)c(OC)c1COC(C)=O)OCO3 (stereo unspecified)
T/C [6]: 100 % of control
T/C [7]: 100 % of control
T/C [8]: 89 % of control

Cc1csc(Nc2c3ccccc3nc3ccccc23)n1
T/C (dose: 12.5 mg/kg/injection, schedule: Q04DX002 (ip), vehicle: distilled water + Tween-80): 99 % of control
T/C (dose: 25.0 mg/kg/injection, schedule: Q04DX002 (ip), vehicle: distilled water + Tween-80): 98 % of control
T/C (dose: 50.0 mg/kg/injection, schedule: Q04DX002 (ip), vehicle: distilled water + Tween-80): 91 % of control
T/C (dose: 100.0 mg/kg/injection, schedule: Q04DX002 (ip), vehicle: distilled water + Tween-80): 91 % of control
T/C (dose: 200.0 mg/kg/injection, schedule: Q04DX002 (ip), vehicle: distilled water + Tween-80): 87 % of control
T/C (dose: 400.0 mg/kg/injection, schedule: Q04DX002 (ip), vehicle: distilled water + Tween-80): 100 % of control

CNC(=O)OCc1c(COC(=O)NC)c(-c2cccc(F)c2F)n2c1CCC2
T/C (dose: 12.5 mg/kg/injection, schedule: Q01DX009 (ip), vehicle: distilled water + Tween-80): 171 % of control
T/C (dose: 25.0 mg/kg/injection, schedule: Q01DX009 (ip), vehicle: distilled water + Tween-80): 156 % of control and 159 % of control

CNC(=O)OCc1nc(-c2ccccc2)oc1COC(=O)NC
T/C (dose: 12.5 mg/kg/injection, schedule: Q01DX005 (ip), vehicle: distilled water + Tween-80): 96 % of control
T/C (dose: 25.0 mg/kg/injection, schedule: Q01DX005 (ip), vehicle: distilled water + Tween-80): 97 % of control
T/C (dose: 50.0 mg/kg/injection, schedule: Q01DX005 (ip), vehicle: distilled water + Tween-80): 92 % of control
T/C (dose: 100.0 mg/kg/injection, schedule: Q01DX005 (ip), vehicle: distilled water + Tween-80): 89 % of control
T/C (dose: 200.0 mg/kg/injection, schedule: Q01DX005 (ip), vehicle: distilled water + Tween-80): 89 % of control

COc1cccc2c1C(=O)c1c(O)c3c(c(O)c1C2=O)CC(O)(C1(O)CSC(C)=N1)CC3O (stereo unspecified)
T/C (dose: 1.56 mg/kg/injection, schedule: Q01DX009 (ip), vehicle: other): 102 % of control
T/C (dose: 3.13 mg/kg/injection, schedule: Q01DX009 (ip), vehicle: other): 104 % of control
T/C (dose: 6.25 mg/kg/injection, schedule: Q01DX009 (ip), vehicle: other): 104 % of control
T/C (dose: 12.5 mg/kg/injection, schedule: Q01DX009 (ip), vehicle: other): 105 % of control
T/C (dose: 25.0 mg/kg/injection, schedule: Q01DX009 (ip), vehicle: other): 98 % of control
T/C (dose: 25.0 mg/kg/injection, schedule: Q01DX009 (ip), vehicle: water): 101 % of control
T/C (dose: 50.0 mg/kg/injection, schedule: Q01DX009 (ip), vehicle: water): 101 % of control
T/C (dose: 100.0 mg/kg/injection, schedule: Q01DX009 (ip), vehicle: water): 121 % of control

O=C(Nc1ccc(N=Nc2ccc3cc(S(=O)(=O)O)cc(S(=O)(=O)O)c3c2)cc1)c1ccc(N=Nc2c(O)ccc3cc(S(=O)(=O)O)cc(S(=O)(=O)O)c23)cc1
T/C (dose: 50.0 mg/kg/injection, schedule: Q01DX005 (ip), vehicle: saline): 104 % of control
T/C (dose: 100.0 mg/kg/injection, schedule: Q01DX005 (ip), vehicle: saline): 99 % of control
T/C (dose: 200.0 mg/kg/injection, schedule: Q01DX005 (ip), vehicle: saline): 98 % of control

O=C(CBr)c1cc2c(cc1Br)OCO2
T/C (dose: 12.5 mg/kg/injection, schedule: Q01DX001 (ip), vehicle: Klucel (hydroxypropylcellulose) (HPC)): 102 % of control
T/C (dose: 25.0 mg/kg/injection, schedule: Q01DX001 (ip), vehicle: Klucel (hydroxypropylcellulose) (HPC)): 104 % of control
T/C [1]: 103 % of control

O=C1c2ccccc2-c2nc3ccccc3nc21
T/C [6]: 94 % of control
T/C [7]: 94 % of control

CC(=O)NS(=O)(=O)c1ccc(N=NC2C(=O)N(C(=O)c3ccncc3)N=C2C)cc1 (stereo unspecified)
T/C (dose: 50.0 mg/kg/injection, schedule: Q01DX009 (ip), vehicle: saline with Tween-80): 95 % of control
T/C (dose: 100.0 mg/kg/injection, schedule: Q01DX009 (ip), vehicle: saline with Tween-80): 97 % of control
T/C (dose: 200.0 mg/kg/injection, schedule: Q01DX009 (ip), vehicle: saline with Tween-80): 100 % of control

N#CC12C3C4C5C3C1n1c(=O)n(-c3ccccc3)c(=O)n1C5C42 (stereo unspecified)
T/C (dose: 100.0 mg/kg/injection, schedule: Q04DX003 (ip), vehicle: Klucel (hydroxypropylcellulose) (HPC)): 106 % of control
T/C (dose: 200.0 mg/kg/injection, schedule: Q04DX003 (ip), vehicle: Klucel (hydroxypropylcellulose) (HPC)): 106 % of control
T/C (dose: 400.0 mg/kg/injection, schedule: Q04DX003 (ip), vehicle: Klucel (hydroxypropylcellulose) (HPC)): 107 % of control

C#Cc1cccc(N=Cc2cc([N+](=O)[O-])cc(Br)c2O)c1
T/C [6]: 100 % of control
T/C [7]: 105 % of control
T/C [8]: 105 % of control

O=C(O)CC1(C(=O)O)CC2C=CC1C2 (stereo unspecified)
T/C [5]: 104 % of control
T/C (dose: 120.0 mg/kg/injection, schedule: Q01DX005 (ip), vehicle: saline with Tween-80): 91 % of control
T/C (dose: 240.0 mg/kg/injection, schedule: Q01DX005 (ip), vehicle: saline with Tween-80): 91 % of control
